Tests used:
[1] = tested on: p-ERK in PMA differentiated THP-1 macrophages; experiment: p-ERK level in PMA differentiated THP-1 macrophages; type: cell-based; details: 10 μM, 1 hr exposure, vs DMSO control
Procedure: (§1) Phospho-ERK 1/2 (p-ERK) activity was measured using the Bioplex Pro Cell Signalling assay kit for ERK 1/2 (Biorad) and the Luminex MAGPIX® system according to the manufacturers' instructions. Measurements of p-ERK in CD4+ cells followed the protocol described by Gorelik et al. (J. Immunol. 2007; 179(8):5553-5563). The levels of the phosphoprotein phospho-ERK (p-ERK) in cell lysates after 1 h exposure to mebendazole (10 μM)), fenbendazole (10 μM) or control (DMSO) in monocytoid THP-1 cells and PMA differentiated THP-1 macrophages was measured using the Luminex MAGPIX® system and the commercially available kit (Biorad, Hercules, Calif.) described above. The assay is based on binding of the target of interest via antibodies to magnetic beads. The target is detected using biotinylated antibodies with a fluorescent reporter. The assays were performed according to the manufacturer's instructions. Briefly, the protein concentrations in the cell lysates were first determined using a Micro-BCA method (ThermoFischer Scientific, Waltham, Mass., USA) to ensure equal amounts of samples in the assay and then measurements were performed by incubating the cell lysate samples with beads, then with detection antibody, and finally with streptavidin-PE. The fluorescence was measured using the MAGPIX instrument (BioRad) and the concentration levels were determined by fitting to a standard curve.

[2] = tested on: Phospho-ERK 1/2 (p-ERK) in monocytoid THP-1 cells; experiment: p-ERK level in monocytoid THP-1 cells (Bioplex Pro / Luminex MAGPIX); type: cell-based; details: for effect on p-ERK levels: 10 μM, 1 hr exposure, monocytoid THP-1 cells, vs DMSO control
Procedure: as §1, with “Monocytoid THP-1 cells were obtained from ATCC (Manassas, Va.) and were cultured in RPMI-1640 medium, supplemented with 10% heat-inactivated fetal bovine serum (HIFBS), 2 mM L-glutamine, 100 U/100 […] penicillin/streptomycin and 0.05 mM 2-mercaptoethanol (all from Sigma, St Louis, Mo.). All cell lines were cultured at 37° C. in a humidified atmosphere containing 5% CO2. Phospho-ERK” for “Phospho-ERK”, “179(8):5553-5563). Phosphorylation of ERK by upstream MAPK proteins such as MEK results in activation of ERK. Measurement of p-ERK levels in cells is used as an indicator of ERK signalling. The level of p-ERK in monocytoid THP-1 cells was measured using the Bioplex Pro Cell Signalling assay kit for ERK 1/2 (Biorad) and the Luminex MAGPIX® system. The assay is based on binding of the target of interest via antibodies to magnetic beads. The target is detected using biotinylated antibodies with a fluorescent reporter. The assay was performed according to the manufacturer's instructions. The levels of p-ERK in monocytoid THP-1 cells and PBMC cells were measured using the Bioplex Pro Cell Signalling assay kit for ERK 1/2 (Biorad) and the Luminex MAGPIX® system. The assay is based on binding of the target of interest via antibodies to magnetic beads. The target is detected using biotinylated antibodies with a fluorescent reporter. The assay was performed according to the manufacturer instructions.” for “179(8):5553-5563).”

[3] = low-dose (Vermox), 6276 subjects, 39 clinical trials; cited from earlier work
[4] = Treatment of sarcoidosis patient, PET/CT examination; type: in vivo, human; details: one patient, 200 mg daily for six days then 400 mg daily (2×200 mg), after six weeks
Procedure: A daily dose of 200 mg (given as 2×100 mg) of mebendazole was administered for six consecutive days.

[5] = tested on: anti-(double stranded)-DNA antibodies in serum of NZBNZWF1 mice; experiment: In vivo efficacy study in SLE model, NZBNZWF1 mice, serum anti-dsDNA antibodies
Procedure: 40 female NZBNZWF1 mice (Envigo Europe) were fed and watered ad libitum and acclimatised for approximately 1 week before initiation of the experiment. Mice were 14 weeks old at the initiation of the experiment, and 16 weeks are the start of treatment. The mice were divided into 4 treatment groups of 10 mice each at the initiation of the experiment: • 1. Vehicle control: treatment with vehicle only • 2. Positive control: treatment with methotrexate (15 mg/kg) • 3. […] The positive control treatment of 15 mg/kg methotrexate was administered intraperitoneally 3 times per week for 8 weeks (weeks 16-24 of age of the mice). […] Serum was collected from all mice at initiation of the experiment (mice age 14 weeks), at start of treatment (mice age 16 weeks), and every second week during treatment (mice age 18, 20, 22, and 24 weeks), after treatment (mice age 26 and 28 weeks) and at termination (mice age 30 weeks). The serum samples were analysed for levels of antibodies directed against double stranded DNA (dsDNA) (anti-ds-DNA antibodies).

[6] = tested on: p-ERK in CD4+ T-cells from SLE patient; experiment: p-ERK in CD4+ T-cells isolated from PBMCs from an SLE patient; type: cell-based, human; details: 10 μM and 30 μM
Procedure: (§2) Peripheral blood mononuclear cells (PBMCs) from healthy donors were isolated by 1.077 g/ml Ficoll-Paque centrifugation and cryopreserved as described by Larsson et al. (Int J Cancer 1992; 50: 177-185). Cell viability was determined by trypan blue exclusion test. SLE PBMCs were obtained Astarte Biologics, WA, USA (cat no 1035, lot 3429DE16) in cryopreserved vials (10 million cells). CD4+ cells were subsequently isolated with an autoMACS® instrument and a CD4+ isolation kit from Miltenyi Biotec according to the manufacturer's description and the method described by Gorelik et al. (J. Immunol. 2007; 179(8):5553-5563). Phospho-ERK 1/2 (p-ERK) activity was measured using the Bioplex Pro Cell Signalling assay kit for ERK 1/2 (Biorad) and the Luminex MAGPIX® system according to the manufacturers' instructions. Measurements of p-ERK in CD4+ cells followed the protocol described by Gorelik et al. (J. Immunol. 2007; 179(8):5553-5563). CD4+ T-Cells were isolated from PBMCs obtained from the venous blood of healthy donors and patients with SLE using the method described in Gorelik et al. (J. Immunol. 2007; 179(8):5553-5563). The level of p-ERK in the isolated CD4+ T-Cells was measured using the Bioplex Pro Cell Signalling assay kit for ERK 1/2 (Biorad) and the Luminex MAGPIX® system.

[7] = tested on: p-ERK in PBMC cells; experiment: p-ERK level in peripheral blood mononuclear cells (PBMC); type: cell-based; details: PBMCs, FIG. 3b
Procedure: as §2, with “179(8):5553-5563).” for “179(8):5553-5563). CD4+ T-Cells were isolated from PBMCs obtained from the venous blood of healthy donors and patients with SLE using the method described in Gorelik et al. (J. Immunol. 2007; 179(8):5553-5563).”, “levels” for “level”, “monocytoid THP-1 cells and PBMC cells were” for “the isolated CD4+ T-Cells was”, “system. The assay is based on binding of the target of interest via antibodies to magnetic beads. The target is detected using biotinylated antibodies with a fluorescent reporter. The assay was performed according to the manufacturer instructions.” for “system.”

[8] = Serum mebendazole concentration in treated patient; type: in vivo; details: human, 400 mg daily (2×200 mg), daily dose 400 mg (2×200 mg), after six weeks
Procedure: The serum mebendazole concentration at this time point was 71 ng/ml.

[9] = long-term high-dose (40 mg/kg/day); cited from earlier work

| concentration at 6 weeks [8] | Structure (SMILES) | effect on p-ERK levels [1] | effect on p-ERK levels [2] | subjects with related adverse events [3] | PET scan outcome: FDG-signal and size of hilar and mediastinal nodes [4] | concentration of anti-dsDNA antibodies in serum vs vehicle control group or methotrexate positive control group ([5]; 25 mg/kg or 50 mg/kg p.o., 5 days per week, weeks 16-24) | concentration of anti-dsDNA antibodies in serum, higher dose vs lower dose ([5]; 50 mg/kg vs 25 mg/kg p.o.) | p-ERK activity compared with CD4+ T-cells from a healthy donor [6] | dose dependence of p-ERK level [7] | effect on p-ERK levels in THP-1 cells ([2]; FIG. 2, comparison with other tubulin-active agents) | dose dependence of p-ERK level ([2]; THP-1 cells not treated with U0126) | p-ERK fluorescence reading ([2]; THP-1 cells not treated with U0126, 30 μM mebendazole) | p-ERK fluorescence reading ([2]; THP-1 cells not treated with U0126, 1 μm mebendazole) | tolerability [9] |
| --- | --- | --- | --- | --- | --- | --- | --- | --- | --- | --- | --- | --- | --- | --- |
| – | COC(=O)Nc1nc2ccc(Sc3ccccc3)cc2[nH]1 [Fenbendazole, fenbendazole] | did not increase | did not increase | – | – | – | – | – | – | – | – | – | – | – |
| 71 ng/mL | COC(=O)Nc1nc2ccc(C(=O)c3ccccc3)cc2[nH]1 [mebendazole, Mebendazole] | significantly increased | significantly increased | less than 1% | sarcoidosis in remission | lower concentrations | lower concentration | restored the activity of p-ERK to at least the same level | increased with an increasing dose | significantly increased | increased with an increasing dose | approximately 1200 arb units | approximately 500 arb units | generally well tolerated |

From patent US11504356B2, “Treatment for inflammatory disease” (REPOS PHARMA AB, priority 2017, dated 2022)
